The values below come from patent publication US20260217708A1, “FUSED BENZAZEPINE DERIVATIVES FOR USE IN THE TREATMENT OF CANCER AND EPILEPSY” (UCB BIOPHARMA SRL, priority 2023, published 2026).

Assay [1] concerns the target T1, system Xc^− (Homo sapiens, UniProt Q9UPY5).
T1 sequence (Q9UPY5 1-501): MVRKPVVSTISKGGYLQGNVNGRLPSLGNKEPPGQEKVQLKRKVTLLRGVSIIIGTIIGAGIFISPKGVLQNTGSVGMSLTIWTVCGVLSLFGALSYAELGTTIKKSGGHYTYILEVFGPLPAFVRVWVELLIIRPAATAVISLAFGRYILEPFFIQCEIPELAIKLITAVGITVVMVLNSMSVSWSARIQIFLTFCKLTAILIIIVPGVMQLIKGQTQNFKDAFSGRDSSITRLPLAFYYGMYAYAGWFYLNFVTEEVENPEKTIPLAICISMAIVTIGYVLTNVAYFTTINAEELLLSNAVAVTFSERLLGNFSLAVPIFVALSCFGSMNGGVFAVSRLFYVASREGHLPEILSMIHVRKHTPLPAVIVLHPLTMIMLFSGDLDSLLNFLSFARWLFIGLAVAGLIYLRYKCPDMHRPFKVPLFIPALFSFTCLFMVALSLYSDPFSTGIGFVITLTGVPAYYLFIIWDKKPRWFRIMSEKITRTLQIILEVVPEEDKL
T1 sequence (P08195 1-529 partner): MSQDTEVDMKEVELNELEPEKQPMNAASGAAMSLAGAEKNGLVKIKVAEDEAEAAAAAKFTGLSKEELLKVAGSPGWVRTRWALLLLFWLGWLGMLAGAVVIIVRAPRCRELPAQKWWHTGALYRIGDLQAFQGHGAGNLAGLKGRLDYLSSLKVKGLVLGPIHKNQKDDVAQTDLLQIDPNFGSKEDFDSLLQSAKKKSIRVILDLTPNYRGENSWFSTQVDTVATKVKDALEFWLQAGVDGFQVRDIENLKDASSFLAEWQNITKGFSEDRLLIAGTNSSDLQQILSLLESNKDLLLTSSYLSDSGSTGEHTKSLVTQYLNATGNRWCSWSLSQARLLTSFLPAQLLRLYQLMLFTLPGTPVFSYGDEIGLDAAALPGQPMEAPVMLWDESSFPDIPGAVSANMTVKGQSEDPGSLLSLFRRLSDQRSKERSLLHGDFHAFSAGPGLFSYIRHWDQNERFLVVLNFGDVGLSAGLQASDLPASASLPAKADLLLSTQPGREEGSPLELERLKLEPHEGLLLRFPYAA
Description: [^14C]L-Cystine uptake assay. It counts as cell-based. Details: endogenous in cells; host or cells: H4 cells. The following applies: H4 cells, sodium-free HEPES buffer, 0.5 μM L-[14C]Cystine and 4.5 μM L-Cystine, 1 hour at 37° C.; for IC50: read-out: pIC50 [^14C] L-Cystine uptake assay (converted). The source says: (§1) The effect of compounds of Formula (I) on the system Xc^− functionality was examined in two independent cell assays: (i) measurement of cystine-induced glutamate release; and (ii) measurement of [^14C]L-Cystine uptake.
(§2) As described above, System Xc^−, also known as the cystine/glutamate antiporter, is an amino acid transporter that mediates the extrusion of intracellular L-glutamate outside the cell and the uptake of extracellular L-cystine into the cell.
(§3) By measuring respectively, the concentration of glutamate released outside the cell and the L-cystine uptaken in the cell, with increasing concentrations of compounds of formula (I) according to the present invention, the efficacy of said compounds to inhibit the System Xc^− function can be evaluated.
(§4) The efficacy of the compounds to inhibit system Xc^− is represented by measuring the IC50 which corresponds to the concentration of compound necessary to inhibit 50% of the signals from the two control groups; DMSO 1% and Erastin 50 μM in the respective assays. pIC50 values correspond to −log of the IC50 in Molar.
In this assay, the medium is devoid of sodium to prevent the transport of glutamate by sodium-dependent excitatory amino acid transporters (EAATs). H4 cells were plated on a 96-well CytoStar-T scintillating microplate (PerkinElmer) at 5×10^4 cells/well in the medium described above. After 1 day, cells were washed one time with the sodium-free HEPES buffer and preincubated with test compounds of Formula (I) (1% final DMSO) for 15 min. Uptake was initiated by adding 0.5 μM L-[1,2, 1′,2′-^14C]Cystine (0.02 mCi/mL, PerkinElmer, Waltham, US) and 4.5 μM L-Cystine (Sigma-Aldrich). After 1 hour at 37° C., plates were counted in a MicroBeta^2 microplate counter (PerkinElmer).

For assay [2], the target named is T1, system Xc^−. Description: Cystine-induced glutamate release assay. It counts as cell-based. Set-up: endogenous in cells; host or cells: H4 cells. Conditions: H4 cells, sodium-free HEPES buffer, 50 μM L-Cystine, 2 hours, Amplex Red glutamate readout; for IC50: read-out: pIC50 Cystine-induced glutamate release assay (converted).
Text: as §1, §2, §3, §4
Measurement of cystine-induced glutamate release indicates levels of glutamate (outside of the cell) that are dependent on system Xc^− antiporter function. Upon the addition of L-Cystine to H4 cells, intracellular glutamate is counter-transported and exported in the supernatant.
In this assay, the medium is devoid of sodium to prevent the transport of glutamate by sodium-dependent excitatory amino acid transporters (EAATs). H4 cells were plated on 384-well culture plate at 1×10^4 cells/well in Dulbecco's Modified Eagle Medium (DMEM) with L-glutamine, penicillin/streptomycin and 10% fetal bovine serum (all from ThermoFisher Scientific) and incubated in a humidified CO2 incubator at 37° C. After 2 days, cells were washed 4 times with prewarmed sodium-free HEPES buffer (contents in mM: HEPES 10, KCl 5.4, CaCl2 2.5, MgCl2 1, KH2PO4 0.4, D-Glucose 5, Choline chloride 140), pH 7.4. Glutamate release was induced by addition of 50 μM of L-Cystine (Sigma-Aldrich), together with a test compound of Formula (I) at 1% final DMSO concentration. After 2 hours of incubation in the culture incubator, supernatants were transferred to a low-binding polypropylene 384-well plate to determine L-glutamate concentration using Amplex™ Red Glutamic Acid Assay Kit (ThermoFisher Scientific). Briefly, 10 μL of Amplex™ Red working solution was added to 10 μL of the supernatant, then the mixture was incubated for 30 min at 37° C. Fluorescence intensity was measured by EnVision microplate reader (PerkinElmer).

Take `Cc1cc2c(c(=O)n1C)-c1ccccc1C(C)C(=O)N2CC(=O)Nc1ccc(C(F)F)cc1` (single isomer, unassigned) [#175, N-[4-(difluoromethyl)phenyl]-2-(2,3,7-trimethyl-1,6-dioxo-7H-pyrido[4,3-d][3]benzazepin-5-yl)acetamide]: the IC50 at system Xc^− [1] and at system Xc^− [2] was under 15.8 nM in each case.

In the case of `CCn1c(C)cc2c(c1=O)-c1cccnc1[C@@H](C)C(=O)N2CC(=O)Nc1ccc(Cl)c(F)c1` (single isomer, unassigned) [#176, Enantiomer (10R) or (10S) of N-(4-chloro-3-fluoro-phenyl)-2-[4-ethyl-5,10-dimethyl-3,9-dioxo-4,8,12-triazatricyclo[9.4.0.0^2,7]pentadeca-1(15),2(7),5,11,13-pentaen-8-yl]acetamide], the IC50 on system Xc^− [1] and at system Xc^− [2] was under 15.8 nM in each case.

Take `Cc1cc2c(c(=O)n1C)-c1cccnc1[C@@H](C)C(=O)N2CC(=O)Nc1ccc(C(F)F)cc1` (single isomer, unassigned) [#177, Enantiomer (10R) or (10S) of N-[4-(difluoromethyl)phenyl]-2-[4,5,10-trimethyl-3,9-dioxo-4,8,12-triazatricyclo[9.4.0.0^2,7]pentadeca-1(11),2(7),5,12,14-pentaen-8-yl]acetamide]: the IC50 on system Xc^− [1] and on system Xc^− [2] was under 15.8 nM throughout.

In the case of `Cc1cc2c(c(=O)n1C)-c1cccnc1[C@@H](C)C(=O)N2CC(=O)Nc1ccc(C(F)(F)F)cc1` (single isomer, unassigned) [#178, Enantiomer (10R) or (10S) of N-[4-(trifluoromethyl)phenyl]-2-[4,5,10-trimethyl-3,9-dioxo-4,8,12-triazatricyclo[9.4.0.0^2,7]pentadeca-1(15),2(7),5,11,13-pentaen-8-yl]acetamide], the IC50 on system Xc^− [1] and at system Xc^− [2] was under 15.8 nM each time.

As for `CC1C(=O)N(CC(=O)Nc2ccc(C(F)(F)F)cc2)c2cn(C)c(=O)c(F)c2-c2cccnc21` (single isomer, unassigned) [#184, enantiomer (10R) or (10S) of 2-(3-fluoro-5,10-dimethyl-4,9-dioxo-5,8,12-triazatricyclo[9.4.0.0^2,7]pentadeca-1(11),2,6,12,14-pentaen-8-yl)-N-[4-(trifluoromethyl)phenyl]acetamide], the IC50 at system Xc^− [1] is under 15.8 nM; on system Xc^− [2], 15.8 to 39.8 nM.

With `Cc1cc2c(cn1)-c1ccnn1C(C)C(=O)N2CC(=O)Nc1ccc(Cl)c(F)c1` (single isomer, unassigned) [#186, enantiomer (7S) or (7R) of N-(4-chloro-3-fluoro-phenyl)-2-[7,12-dimethyl-8-oxo-5,6,9,13-tetrazatricyclo[8.4.0.0^2,6]tetradeca-1(10),2,4,11,13-pentaen-9-yl]acetamide], the IC50 at system Xc^− [1] is 39.8 to 100 nM; on system Xc^− [2], 15.8 to 39.8 nM.

`CC1C(=O)N(CC(=O)Nc2ccc(C(F)(F)F)cc2)c2ccnc(F)c2-c2cccnc21` (single isomer, unassigned) [#187, enantiomer (10R) or (10S) of 2-[3-fluoro-10-methyl-9-oxo-4,8,12-triazatricyclo[9.4.0.0^2,7]pentadeca-1(11),2(7),3,5,12,14-hexaen-8-yl]-N-[4-(trifluoromethyl)phenyl]acetamide]: the IC50 on system Xc^− [1] was 15.8 to 39.8 nM; on system Xc^− [2], 39.8 to 100 nM.

As for `Cc1cc2c(c(Cl)n1)-c1cccnc1C(F)C(=O)N2CC(=O)Nc1ccc(C(F)(F)F)cc1` (single isomer, unassigned) [#188, enantiomer (10R) or (10S) of 2-[3-chloro-10-fluoro-5-methyl-9-oxo-4,8,12-triazatricyclo[9.4.0.0^2,7]pentadeca-1(11),2(7),3,5,12,14-hexaen-8-yl]-N-[4-(trifluoromethyl)phenyl]acetamide], the IC50 at system Xc^− [1] and on system Xc^− [2] was under 15.8 nM in each case.

Regarding `Cc1cc2c(c(Cl)n1)-c1ccccc1CC(=O)N2CC(=O)Nc1ccc(C(F)(F)F)cc1` (single isomer, unassigned) [#189, Atropisomer aR or aS of 2-(1-chloro-3-methyl-6-oxo-7H-pyrido[4,3-d][3]benzazepin-5-yl)-N-[4-(trifluoromethyl)phenyl]acetamide], the “pIC50 [^14C] L-Cystine uptake assay” value against system Xc^− [1] is recorded as “D (plC50 > about 7.80)”. On system Xc^− [2], the “pIC50 Cystine-induced glutamate release assay” value is on record as “D (plC50 > about 7.80)”.

In the case of `Cc1cc2c(c(Cl)n1)-c1ccccc1CC(=O)N2CC(=O)Nc1ccc(C(F)(F)F)cc1` (single isomer, unassigned) [#190, Atropisomer aS or aR of 2-(1-chloro-3-methyl-6-oxo-7H-pyrido[4,3-d][3]benzazepin-5-yl)-N-[4-(trifluoromethyl)phenyl]acetamide], on system Xc^− [1], the “pIC50 [^14C] L-Cystine uptake assay” value is given as “B (about 7.00 < pIC50 ≤ about 7.40)”. The “pIC50 Cystine-induced glutamate release assay” value on system Xc^− [2] is on record as “A (about 6.3 ≤ pIC50 ≤ about 7.00)”.

Consider `Cc1cc2c(c(F)n1)-c1cccnc1[C@H](C)C(=O)N2CC(=O)Nc1ccc(C(F)(F)F)cc1` (single isomer, unassigned) [#191], for which the IC50 at system Xc^− [1] was 39.8 to 100 nM; on system Xc^− [2], 100 to 501 nM.

With `Cc1cc2c(c(F)n1)-c1cccnc1[C@@H](C)C(=O)N2CC(=O)Nc1ccc(C(F)(F)F)cc1` (single isomer, unassigned) [#192], the IC50 on system Xc^− [1] and on system Xc^− [2] was under 15.8 nM throughout.

Take `O=C(CN1C(=O)Cc2cc(F)ccc2-c2c1ccnc2Cl)Nc1ccc(C(F)(F)F)cc1` (single isomer, unassigned) [#193, Atropisomer aR or aS of 2-(1-chloro-9-fluoro-6-oxo-7H-pyrido[4,3-d][3]benzazepin-5-yl)-N-[4-(trifluoromethyl)phenyl]acetamide]: on system Xc^− [1], the “pIC50 [^14C] L-Cystine uptake assay” value was “D (plC50 > about 7.80)”. Further, the “pIC50 Cystine-induced glutamate release assay” value at system Xc^− [2] is “C (about 7.40 < pIC50 ≤ about 7.80)”.
